According to the CheMixHub viscosity set:
± gives the uncertainty stated by the source.

Test: xn = mol fraction of the nth substance listed
Conditions: 101 kPa

Cc1cccc(O)c1 + C1CCCCC1
308.15 K
Conditions | viscosity [mPa·s]
x1 = 0.0832 | 0.8736 ± 0.0072
x1 = 0.289 | 1.288 ± 0.01
x1 = 0.3627 | 1.541 ± 0.012
x1 = 0.4467 | 1.863 ± 0.015
x1 = 0.5201 | 2.175 ± 0.017
x1 = 0.5859 | 2.547 ± 0.021
x1 = 0.7213 | 3.745 ± 0.03
x1 = 0.8473 | 5.244 ± 0.043
x1 = 0.9032 | 6.428 ± 0.052

C[NH+](C)CCO.O=C([O-])CC(O)C(=O)O (stereo not drawn) + O
x2 = 0.89
Conditions | viscosity [mPa·s]
298 K | 18.3
313 K | 10.3

CCCCOCCOCCOCCO + O
viscosity [mPa·s]
Conditions | 293.15 K | 303.15 K | 313.15 K | 323.15 K
x1 = 0.009612 | 1.536 ± 0.016 | 1.175 ± 0.012 | 0.9391 ± 0.0093 | 0.7657 ± 0.0075
x1 = 0.02136 | 2.342 ± 0.021 | 1.741 ± 0.015 | 1.356 ± 0.012 | 1.094 ± 0.009
x1 = 0.03602 | 3.496 ± 0.028 | 2.526 ± 0.02 | 1.935 ± 0.015 | 1.519 ± 0.012
x1 = 0.05509 | 5.103 ± 0.036 | 3.614 ± 0.026 | 2.685 ± 0.019 | 2.137 ± 0.015
x1 = 0.08023 | 7.018 ± 0.045 | 4.832 ± 0.032 | 3.562 ± 0.024 | 2.692 ± 0.018
x1 = 0.1156 | 9.156 ± 0.055 | 6.189 ± 0.039 | 4.476 ± 0.029 | 3.293 ± 0.022
x1 = 0.1685 | 11.21 ± 0.07 | 7.424 ± 0.045 | 5.289 ± 0.034 | 3.913 ± 0.025
x1 = 0.2571 | 12.63 ± 0.07 | 8.311 ± 0.05 | 5.912 ± 0.037 | 4.406 ± 0.028
x1 = 0.3308 | 12.68 ± 0.07 | 8.439 ± 0.051 | 6.038 ± 0.038 | 4.477 ± 0.029
x1 = 0.4398 | 12.35 ± 0.07 | 8.238 ± 0.05 | 5.926 ± 0.037 | 4.406 ± 0.028
x1 = 0.5322 | 11.78 ± 0.07 | 7.929 ± 0.048 | 5.747 ± 0.036 | 4.329 ± 0.028
x1 = 0.5991 | 11.36 ± 0.07 | 7.685 ± 0.047 | 5.612 ± 0.035 | 4.257 ± 0.027
x1 = 0.7291 | 10.51 ± 0.06 | 7.271 ± 0.044 | 5.407 ± 0.034 | 4.147 ± 0.027
x1 = 0.8068 | 10.13 ± 0.06 | 7.083 ± 0.043 | 5.264 ± 0.033 | 4.088 ± 0.026
x1 = 0.8905 | 9.778 ± 0.058 | 6.856 ± 0.042 | 5.143 ± 0.033 | 3.936 ± 0.025

CCCCC(CC)COP(=O)(O)OCC(CC)CCCC (stereo not drawn) + CCO
303.15 K
Conditions | viscosity [mPa·s]
x1 = 0.0484 | 1.909 ± 0.045
x1 = 0.086 | 2.633 ± 0.061
x1 = 0.1497 | 3.874 ± 0.088
x1 = 0.246 | 5.98 ± 0.13
x1 = 0.3456 | 8.285 ± 0.18
x1 = 0.4132 | 9.819 ± 0.21
x1 = 0.5228 | 12.07 ± 0.26
x1 = 0.6182 | 13.82 ± 0.3
x1 = 0.7125 | 15.38 ± 0.34
x1 = 0.8312 | 17.13 ± 0.38
x1 = 0.9224 | 18.43 ± 0.42

Cc1cccc(O)c1 + CCC(=O)O
viscosity [mPa·s]
Conditions | x2 = 0.1345 | x2 = 0.2591 | x2 = 0.3747 | x2 = 0.4825 | x2 = 0.5831 | x2 = 0.6772 | x2 = 0.7654 | x2 = 0.8483 | x2 = 0.9264
298.15 K | 9.375 ± 1.1 | 7.067 ± 0.85 | 5.436 ± 0.69 | 4.234 ± 0.56 | 3.319 ± 0.44 | 2.606 ± 0.35 | 2.045 ± 0.28 | 1.606 ± 0.23 | 1.269 ± 0.18
308.15 K | 5.793 ± 0.73 | 4.756 ± 0.62 | 3.908 ± 0.52 | 3.221 ± 0.43 | 2.608 ± 0.35 | 2.105 ± 0.29 | 1.658 ± 0.23 | 1.316 ± 0.19 | 1.088 ± 0.16
318.15 K | 4.646 ± 0.61 | 3.935 ± 0.52 | 3.285 ± 0.44 | 2.719 ± 0.37 | 2.255 ± 0.31 | 1.884 ± 0.26 | 1.566 ± 0.22 | 1.277 ± 0.18 | 0.9609 ± 0.14

Cc1cccc(O)c1 + c1ccccc1
308.15 K
Conditions | viscosity [mPa·s]
x1 = 0.1019 | 0.6327 ± 0.0055
x1 = 0.1702 | 0.7272 ± 0.0062
x1 = 0.305 | 0.9887 ± 0.0082
x1 = 0.4025 | 1.282 ± 0.01
x1 = 0.5186 | 1.693 ± 0.014
x1 = 0.6441 | 2.436 ± 0.02
x1 = 0.768 | 3.648 ± 0.03
x1 = 0.8611 | 4.963 ± 0.041
x1 = 0.9525 | 6.937 ± 0.056

CCCCC(CC)COP(=O)(O)OCC(CC)CCCC (stereo not drawn) + CCCO
303.15 K
Conditions | viscosity [mPa·s]
x1 = 0.0388 | 2.397 ± 0.06
x1 = 0.0845 | 3.204 ± 0.08
x1 = 0.1765 | 4.994 ± 0.12
x1 = 0.2522 | 6.571 ± 0.16
x1 = 0.3449 | 8.647 ± 0.2
x1 = 0.4687 | 11.29 ± 0.26
x1 = 0.6123 | 13.8 ± 0.32
x1 = 0.7274 | 15.62 ± 0.36
x1 = 0.8109 | 16.82 ± 0.39
x1 = 0.9261 | 18.45 ± 0.43

CCCCC(CC)COP(=O)(O)OCC(CC)CCCC (stereo not drawn) + CC(=O)O
303.15 K
Conditions | viscosity [mPa·s]
x1 = 0.0796 | 1.574 ± 0.075
x1 = 0.1382 | 2.292 ± 0.11
x1 = 0.2186 | 3.386 ± 0.15
x1 = 0.3103 | 4.872 ± 0.21
x1 = 0.3968 | 6.604 ± 0.27
x1 = 0.4788 | 8.198 ± 0.33
x1 = 0.5297 | 9.118 ± 0.36
x1 = 0.6234 | 11.09 ± 0.42
x1 = 0.6891 | 12.58 ± 0.47
x1 = 0.7384 | 13.67 ± 0.51
x1 = 0.8068 | 15.2 ± 0.56
x1 = 0.8905 | 16.88 ± 0.62
x1 = 0.9592 | 18.49 ± 0.68

CC(=O)c1ccc(C)cc1 + C=CC#N
308.15 K
Conditions | viscosity [mPa·s]
x1 = 0.053 | 0.365 ± 0.004
x1 = 0.1107 | 0.4026 ± 0.0043
x1 = 0.1749 | 0.4516 ± 0.0047
x1 = 0.2487 | 0.511 ± 0.0052
x1 = 0.3327 | 0.5909 ± 0.0059
x1 = 0.4237 | 0.684 ± 0.0067
x1 = 0.536 | 0.8136 ± 0.0078
x1 = 0.6679 | 0.9939 ± 0.0094
x1 = 0.8181 | 1.23 ± 0.011

CCCCCCCCCCCCN + c1ccccc1
303.15 K
Conditions | viscosity [mPa·s]
x2 = 0.2072 | 2.122 ± 0.023
x2 = 0.4348 | 1.563 ± 0.017
x2 = 0.5228 | 1.375 ± 0.015
x2 = 0.6046 | 1.189 ± 0.013
x2 = 0.7998 | 0.8357 ± 0.0093

COc1ccc2cc([C@H](C)C(=O)O)ccc2c1 + CC#N
Conditions | viscosity [mPa·s]
297.93 K, x1 = 0.000702 | 0.3571 ± 0.0076
297.96 K, x1 = 0.000233 | 0.3546 ± 0.0075
298.01 K, x1 = 0.001151 | 0.3583 ± 0.0076
298.04 K, x1 = 0.001587 | 0.3603 ± 0.0077
298.07 K, x1 = 0.002732 | 0.364 ± 0.0077
301.61 K, x1 = 0.001151 | 0.3461 ± 0.0074
301.69 K, x1 = 0.000233 | 0.3425 ± 0.0073
301.69 K, x1 = 0.001587 | 0.3476 ± 0.0074
301.7 K, x1 = 0.000702 | 0.344 ± 0.0073
301.75 K, x1 = 0.002732 | 0.351 ± 0.0075
303.56 K, x1 = 0.001151 | 0.3398 ± 0.0072
303.58 K, x1 = 0.002732 | 0.3453 ± 0.0074
303.65 K, x1 = 0.000233 | 0.3359 ± 0.0072
303.66 K, x1 = 0.001587 | 0.342 ± 0.0073
303.69 K, x1 = 0.000702 | 0.3371 ± 0.0072
305.66 K, x1 = 0.000233 | 0.3303 ± 0.007
305.66 K, x1 = 0.001151 | 0.3329 ± 0.0071
305.7 K, x1 = 0.002732 | 0.3376 ± 0.0072
305.71 K, x1 = 0.000702 | 0.331 ± 0.0071
305.71 K, x1 = 0.001587 | 0.3347 ± 0.0071
308.62 K, x1 = 0.001151 | 0.324 ± 0.0069
308.64 K, x1 = 0.001587 | 0.3252 ± 0.0069
308.71 K, x1 = 0.000233 | 0.3206 ± 0.0068
308.75 K, x1 = 0.002732 | 0.3279 ± 0.007
308.76 K, x1 = 0.000702 | 0.322 ± 0.0069
311.62 K, x1 = 0.001151 | 0.3149 ± 0.0067
311.63 K, x1 = 0.001587 | 0.3163 ± 0.0068
311.68 K, x1 = 0.002732 | 0.3191 ± 0.0068
311.69 K, x1 = 0.000233 | 0.3119 ± 0.0067
311.72 K, x1 = 0.000702 | 0.3132 ± 0.0067

Nc1ccc(Br)cc1 + [Br-].[Br-].[Br-].[Sb+3]
323.15 K
Conditions | viscosity [mPa·s]
x2 = 0.25 | 212.7 ± 5.8
x2 = 0.333 | 1215 ± 72
x2 = 0.4 | 12170 ± 360
x2 = 0.45 | 20000 ± 730
x2 = 0.48 | 20530 ± 760
x2 = 0.5 | 20730 ± 760
x2 = 0.52 | 19960 ± 720
x2 = 0.55 | 11640 ± 330
x2 = 0.6 | 4143 ± 110
x2 = 0.75 | 239.8 ± 7.5

C[N+](=O)[O-] + CCC(C)=O
298.15 K
Conditions | viscosity [mPa·s]
x1 = 0.1563 | 0.4237 ± 0.043
x1 = 0.2954 | 0.4466 ± 0.045
x1 = 0.418 | 0.4694 ± 0.047
x1 = 0.5281 | 0.4923 ± 0.05
x1 = 0.6264 | 0.515 ± 0.052
x1 = 0.7156 | 0.5377 ± 0.054
x1 = 0.7963 | 0.5604 ± 0.057
x1 = 0.8703 | 0.5834 ± 0.059
x1 = 0.9376 | 0.6067 ± 0.061

C[N+](=O)[O-] + CCOC(C)=O
298.15 K
Conditions | viscosity [mPa·s]
x1 = 0.1688 | 0.4555 ± 0.046
x1 = 0.3141 | 0.4808 ± 0.049
x1 = 0.4395 | 0.5046 ± 0.051
x1 = 0.55 | 0.526 ± 0.053
x1 = 0.6469 | 0.5465 ± 0.055
x1 = 0.733 | 0.5651 ± 0.057
x1 = 0.8102 | 0.5828 ± 0.059
x1 = 0.8801 | 0.5995 ± 0.06
x1 = 0.9429 | 0.6154 ± 0.062
